# According to patent US20080187922A1 (priority 2006, published 2008):
# Test system: Mycobacterium smegmatis recombinant strains
# Test: microbe, parasite or virus in culture
# Assay type: cell-based
# Conditions: Mycolicibacterium smegmatis, read-out: RFP MIC
smiles,measurement,value
"CO[C@H]1/C=C/O[C@@]2(C)Oc3c(C)c(O)c4c(O)c(c(/C=N/N5CCN(C)CC5)c(O)c4c3C2=O)NC(=O)/C(C)=C\C=C\[C@H](C)[C@H](O)[C@@H](C)[C@@H](O)[C@@H](C)[C@H](OC(C)=O)[C@@H]1C [RFP, 3-(4-Methylpiperazinyliminomethyl)-rifamycin]",MIC,150 µg/mL
